# Like-named read-outs stand apart in the source and are kept apart here.
# Columns and labels:
# Assay type in all cases: binding
# GlnH [1] = molecular target: T1, GlnH (Mycobacterium tuberculosis, UniProt P96257); assay: crystal structure, thermal melt shift
# GlnH [2] = molecular target: T1, GlnH; assay: crystal structure, ITC, thermal melt shift
# [3] = molecular target: T2, C. glutamicum GlnH (GlnHcg) (Corynebacterium glutamicum, UniProt Q8NM30); assay: intrinsic tryptophan fluorescence, thermal melt shift
# T2 construct: gene Cgl2750; soluble domain, N-terminal His6 tag
# T2 sequence (Q8NM30 entry or part of it): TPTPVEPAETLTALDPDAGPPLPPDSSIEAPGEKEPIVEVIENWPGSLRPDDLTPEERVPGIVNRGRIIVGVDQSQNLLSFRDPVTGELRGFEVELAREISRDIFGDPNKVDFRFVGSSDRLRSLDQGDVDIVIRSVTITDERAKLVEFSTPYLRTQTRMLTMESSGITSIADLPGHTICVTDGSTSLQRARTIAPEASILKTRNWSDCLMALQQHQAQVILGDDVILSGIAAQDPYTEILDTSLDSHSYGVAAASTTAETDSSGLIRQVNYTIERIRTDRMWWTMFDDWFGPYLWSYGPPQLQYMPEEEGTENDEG
# T1 sequence (P96257 27-328 limits assumed): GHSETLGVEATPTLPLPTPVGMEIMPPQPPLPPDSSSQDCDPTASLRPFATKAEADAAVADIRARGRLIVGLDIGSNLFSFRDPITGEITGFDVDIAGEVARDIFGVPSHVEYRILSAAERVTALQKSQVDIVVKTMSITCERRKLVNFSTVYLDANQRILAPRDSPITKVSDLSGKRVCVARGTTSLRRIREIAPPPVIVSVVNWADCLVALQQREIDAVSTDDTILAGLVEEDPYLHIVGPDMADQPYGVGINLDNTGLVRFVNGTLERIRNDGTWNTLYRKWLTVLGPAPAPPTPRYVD
smiles,measurement,setting,value
NC(=O)C[C@H](N)C(=O)O [asparagine],"crystal structure, thermal melt shift",GlnH [1],"6H1U (GlnH with Asp), 6H20 (GlnH with Asn), and 6H2T (GlnH with Glu)"
N[C@@H](CC(=O)O)C(=O)O [aspartate],Kd,GlnH [2]; read-out: Kd (μM)^a,4.8 ± 0.6 µM
same,Kd,[3]; read-out: Kd (μM)^a,550 ± 90 µM
N[C@@H](CCC(=O)O)C(=O)O [glutamate],Kd,GlnH [2],15.2 ± 5.7 µM
same,Kd,[3],2060 µM

# Source: article PMC6069109, “An Aspartate-Specific Solute-Binding Protein Regulates Protein Kinase G Activity To Control Glutamate Metabolism in Mycobacteria” (mBio, 2018)
